The values below come from patent US8778961B2, “O-methylated rapamycin derivatives for alleviation and inhibition of lymphoproliferative disorders” (The Trustees of the University of Pennsylvania, priority 2000, dated 2014).

Assay in all cases: treatment of established xenotransplanted tumors in SCID mice
Common to all, as to type: in vivo

One assay has as its system 15A tumors. Conditions: 5 milligrams per kilogram daily gavage. As for the experimental part:
(§1) Establishment and passaging of the xenotransplanted tumors was performed as described (Douglas et al., 1998, Cytometry 32:57-65; Kawamata et al., 1998, Blood 91:561-569; Pepper et al., 1998, Leuk. Res. 22:439-444). To deplete macrophages and NK cells and to enhance tumor engraftment, SCID mice were injected intraperitoneally with 30-45 milligrams per kilogram of etoposide (Bedford Laboratories, Bedford, Ohio) 4 days prior to implantation of the human EBV^+ B-cell lines (Visonneau et al., 1998, Am. J. Path. 152:1299-1311). Ten million cells of each line employed (see results) were inoculated into mice either intraperitoneally or subcutaneously in 200 microliters of Dulbecco's Phosphate Buffered Saline (DPBS; BioWhittaker, Walkersville, Md.). Ascites or palpable subcutaneous tumors developed 3-5 weeks after cell injection.
(§2) Tumor treatment and growth inhibition experiments were performed using fragments of the established subcutaneous tumors (Pasqualucci et al., 1995, Blood 85:2139-2146, Visonneau et al., 1998, Am. J. Path. 152:1299-1311). For this purpose, mice were anesthetized with KETALAR™ (ketamine, Parke-Davis, Morris Plains, N.J.) by intraperitoneal injection of 100 milligrams per kilogram. Next, the primary tumor was aseptically removed and freed from necrotic, fatty and connective tissue and divided into small pieces of roughly equal size and 3-4 pieces per mouse were injected subcutaneously. Treatment of established tumors with SDZ RAD was started when tumors reached 5 millimeters diameter. In growth inhibition experiments, the treatment was initiated 3 days prior to the tumor implantation. Tumor volume in all experiments was determined from the equation: volume=0.4ab^2, where a and b designate respectively long and short diameter of the tumor. The transplanted mice were monitored for tumor growth for a period of up to 2 months. Five milligrams per kilogram of SDZ RAD was administered once a day by gavage as described (Schuurman et al., 1997, Transplantation 64:32-5; Schuler et al. 1997, Transplantation 64:36-42).
(§3) Mice were sacrificed by exposure to FORANE™ (isoflurane, Ohmeda, Liberty Place, N.J.) on day 29 in the drug toxicity study, on day 40-55 in the tumor growth inhibition study or when tumors achieved approximately 2 centimeter diameter, or when ulceration of the skin, signs of severe respiratory distress, weakness, or lethargy appeared. Complete autopsy was performed on all mice at the end of the study regardless of their appearance. Tumor and internal organs (spleen, liver, lung, heart, kidney, small and large intestines, femoral bone for bone marrow) were fixed in 10% (v/v) formalin, embedded in paraffin, cut into […] sections, transferred to glass slides, and stained with hematoxylin and eosin. Representative tumor fragments were stained immunohistochemically by standard streptavidin-biotin complex technique using commercially available reagents (Research Genetics, Huntsville, Ala.), antibodies: anti-CD20 (L-26) and LMP-1 (both from DAKO, Carpinteria, Calif.) and Ki67 (mib1; Immunotech, Westbrook, Me.). EBV-encoded RNA (EBER-1), and detected using commercially available reagents.
(§4) In order to determine the in vivo effect of SDZ RAD on PTLD-like cells, 15A, 20A, and A1 cell line tumors were implanted into 7-15 SCID mice per cell line. Treatment was initiated once the tumors reached 5 millimeters diameter, which corresponds to a volume of 50 cubic millimeters. SDZ RAD was administered by daily gavage at 5 milligrams per kilogram, which represents a non-toxic and effective immunosuppressive dose (Schuurman et al., 1997, Transplantation 64:32-5; Schuler et al. 1997, Transplantation 64:36-42).

In another assay the test system is 20A tumors. As for the experimental part:
as §1, §2, §3, §4

The subject of the next assay is A1 cell line tumors. As to the method:
as §1, §2, §3, §4

Values joined by “and” are separate entries in the source; they are usually repeats but may differ in a detail not shown here. Equal values may be shown once.

With `CO[C@H]1C[C@@H]2CC[C@@H](C)[C@@](O)(O2)C(=O)C(=O)N2CCCC[C@H]2C(=O)O[C@H]([C@H](C)C[C@@H]2CC[C@@H](OCCO)[C@H](OC)C2)CC(=O)[C@H](C)/C=C(\C)[C@@H](O)[C@@H](OC)C(=O)[C@H](C)C[C@H](C)/C=C/C=C/C=C/1C` [SDZ RAD, 40-O-(2-hydroxy)ethyl-rapamycin], the “effect on tumor growth” value with 15A tumors (started at 5 millimeters tumor diameter) is “marked drug-induced delay of the tumor growth but no absolute tumor growth inhibition or regression”. For the same molecule, the median tumor volume entry with 15A tumors (day 21, treated mice) was “approximately 240 cubic millimeters”. Also, the tumor volume result in the assay with 15A tumors (day 38, treated mice) is listed as “around 1000 cubic millimeters”. Further, the “treated mice with significant regression in the tumor volume” value in the assay with 20A tumors (5 milligrams per kilogram daily gavage) is on record as 6 out of 10. For the same molecule, the “average treated tumor volume” value with 20A tumors (day 19, 5 milligrams per kilogram daily gavage, equal to initial tumor size) is given as 50 cubic millimeters. In the assay on 20A tumors (day 53, subset of mice with regression), this molecule had a median tumor volume below 5 cubic millimeters. For the same molecule, the “mice with steady regression on further treatment” value in the assay with A1 cell line tumors (after day 21) was “all 8”. In addition, in the assay on A1 cell line tumors (day 21), the “tumors showing any evidence of growth” value is given as 0/8. Besides, the “median volume of the treated tumors” value in the assay on A1 cell line tumors (day 21, 5 milligrams per kilogram daily gavage) stood at 50 cubic millimeters. Also, the mean tumor volume in the assay on A1 cell line tumors (day 53) is given as below 5 cubic millimeters. In the assay with A1 cell line tumors (day 53, 8 treated mice), the “mice in which no lymphoma could be detected (total tumor eradication)” value is 4 and 4 out of 8; the “mice with microscopically-confirmed residual lymphoma” value was 4.
